Where two headings read alike, the source gives them in different places.
Tested on: hiPSC-CMs (iCell-Cardiomyocytes^2)
Summary of the method: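 Monolayers of hiPSC-CMs on fibronectin-coated MEA plates, 50 K/well, kept at 37°C, 5% CO2; compounds added in 0.1% final DMSO after 5-min baseline. Field potential and impedance parameters expressed as mean ± SD percent change from baseline; arrhythmic events noted; cytotoxicity fluorescence normalized to DMSO, Kruskal-Wallis.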

`N=C(N)c1ccc(OCCCCCOc2ccc(C(=N)N)cc2)cc1` [Pentamidine] was tested, and the “BR (beating rate), % change from baseline” value (“BR (beating rate), % change” below) (0.1 µM, 2h) was -1±2%, the “Beating below threshold, number of observations/total well numbers” value (0.1 µM, 2h) was 0/6 and the “Cessation of beating, number of observations/total well numbers” value (0.1 µM, 2h) was 0/6. The “EAD, number of observations/total well numbers” value (0.1 µM, 2h) was 0/6, the “FPD (field-potential duration), % change from baseline” value (0.1 µM, 2h) was 2.6±1.2% and the “FPDc (field-potential duration corrected by beat-rate), % change from baseline” value (shortened to “FPDc … % change from baseline”) (0.1 µM, 2h) was 2.2±1.4%. The “Flat T-wave-like, number of observations/total well numbers” value (0.1 µM, 2h) was 0/6, the “BR (beating rate), % change” value (0.1 µM, 24h) was 2±2% and the “Beating below threshold, number of observations/total well numbers” value (0.1 µM, 24h) was 0/6. For the same compound, the “Cessation of beating, number of observations/total well numbers” value (0.1 µM, 24h) was 0/6, the “EAD, number of observations/total well numbers” value (0.1 µM, 24h) was 0/6 and the “FPD (field-potential duration), % change from baseline” value (0.1 µM, 24h) was 2±3.4%. The “FPDc … % change from baseline” value (0.1 µM, 24h) was 2.8±3.1%, the “Flat T-wave-like, number of observations/total well numbers” value (0.1 µM, 24h) was 0/6 and the “BR (beating rate), % change” value (0.1 µM, 48h) was -4±3%. The “Beating below threshold, number of observations/total well numbers” value (0.1 µM, 48h) was 0/6, the “Cessation of beating, number of observations/total well numbers” value (0.1 µM, 48h) was 0/6 and the “EAD, number of observations/total well numbers” value (0.1 µM, 48h) was 0/6. For the same compound, the “FPD (field-potential duration), % change from baseline” value (0.1 µM, 48h) was 7.3±1.7%, the “FPDc … % change from baseline” value (0.1 µM, 48h) was 5.7±2% and the “Flat T-wave-like, number of observations/total well numbers” value (0.1 µM, 48h) was 0/6. For the same compound, the “BR (beating rate), % change” value (0.1 µM, 72h) was -6±3%, the “Beating below threshold, number of observations/total well numbers” value (0.1 µM, 72h) was 0/6 and the “Cessation of beating, number of observations/total well numbers” value (0.1 µM, 72h) was 0/6. The “EAD, number of observations/total well numbers” value (0.1 µM, 72h) was 0/6, the “FPD (field-potential duration), % change from baseline” value (0.1 µM, 72h) was 4.9±2.5% and the “FPDc … % change from baseline” value (0.1 µM, 72h) was 3±2.9%. The “Flat T-wave-like, number of observations/total well numbers” value (0.1 µM, 72h) was 0/6, the “BR (beating rate), % change” value (0.1 µM, 96h) was -13±3% and the “Beating below threshold, number of observations/total well numbers” value (0.1 µM, 96h) was 0/6. The “Cessation of beating, number of observations/total well numbers” value (0.1 µM, 96h) was 0/6, the “EAD, number of observations/total well numbers” value (0.1 µM, 96h) was 0/6 and the “FPD (field-potential duration), % change from baseline” value (0.1 µM, 96h) was 9.2±3.1%. For the same compound, the “FPDc … % change from baseline” value (0.1 µM, 96h) was 4.3±2.8%, the “Flat T-wave-like, number of observations/total well numbers” value (0.1 µM, 96h) was 0/6 and the “BR (beating rate), % change” value (0.3 µM, 2h) was -4±4%. The “Beating below threshold, number of observations/total well numbers” value (0.3 µM, 2h) was 0/5, the “Cessation of beating, number of observations/total well numbers” value (0.3 µM, 2h) was 0/5 and the “EAD, number of observations/total well numbers” value (0.3 µM, 2h) was 0/5. For the same compound, the “FPD (field-potential duration), % change from baseline” value (0.3 µM, 2h) was 9.7±6.7 %, the “FPDc … % change from baseline” value (0.3 µM, 2h) was 8±7.4% and the “Flat T-wave-like, number of observations/total well numbers” value (0.3 µM, 2h) was 0/5. The “BR (beating rate), % change” value (0.3 µM, 24h) was 0±3%, the “Beating below threshold, number of observations/total well numbers” value (0.3 µM, 24h) was 0/5 and the “Cessation of beating, number of observations/total well numbers” value (0.3 µM, 24h) was 0/5. For the same compound, the “EAD, number of observations/total well numbers” value (0.3 µM, 24h) was 0/5, the “FPD (field-potential duration), % change from baseline” value (0.3 µM, 24h) was 4.6±3.3% and the “FPDc … % change from baseline” value (0.3 µM, 24h) was 4.5±3.1%. The “Flat T-wave-like, number of observations/total well numbers” value (0.3 µM, 24h) was 0/5, the “BR (beating rate), % change” value (0.3 µM, 48h) was -2±4% and the “Beating below threshold, number of observations/total well numbers” value (0.3 µM, 48h) was 0/5. For the same compound, the “Cessation of beating, number of observations/total well numbers” value (0.3 µM, 48h) was 0/5, the “EAD, number of observations/total well numbers” value (0.3 µM, 48h) was 0/5 and the “FPD (field-potential duration), % change from baseline” value (0.3 µM, 48h) was 4.9±2.6%. For the same compound, the “FPDc … % change from baseline” value (0.3 µM, 48h) was 4.1±2%, the “Flat T-wave-like, number of observations/total well numbers” value (0.3 µM, 48h) was 0/5 and the “BR (beating rate), % change” value (0.3 µM, 72h) was -11±4%. For the same compound, the “Beating below threshold, number of observations/total well numbers” value (0.3 µM, 72h) was 0/5, the “Cessation of beating, number of observations/total well numbers” value (0.3 µM, 72h) was 0/5 and the “EAD, number of observations/total well numbers” value (0.3 µM, 72h) was 0/5. For the same compound, the “FPD (field-potential duration), % change from baseline” value (0.3 µM, 72h) was 10.5±2.1%, the “FPDc … % change from baseline” value (0.3 µM, 72h) was 6.4±2.9% and the “Flat T-wave-like, number of observations/total well numbers” value (0.3 µM, 72h) was 0/5. For the same compound, the “BR (beating rate), % change” value (0.3 µM, 96h) was -20±5%, the “Beating below threshold, number of observations/total well numbers” value (0.3 µM, 96h) was 0/5 and the “Cessation of beating, number of observations/total well numbers” value (0.3 µM, 96h) was 0/5. For the same compound, the “EAD, number of observations/total well numbers” value (0.3 µM, 96h) was 0/5, the “FPD (field-potential duration), % change from baseline” value (0.3 µM, 96h) was 17.7±1.7% and the “FPDc … % change from baseline” value (0.3 µM, 96h) was 9.3±1.9%. The “Flat T-wave-like, number of observations/total well numbers” value (0.3 µM, 96h) was 0/5, the “time point from which physiologically relevant prolongation of FPD and FPDc was observed” value (1 µM) was 48 h and the “BR (beating rate), % change” value (1 µM, 2h) was -3±3%. The “Beating below threshold, number of observations/total well numbers” value (1 µM, 2h) was 0/6, the “Cessation of beating, number of observations/total well numbers” value (1 µM, 2h) was 0/6 and the “EAD, number of observations/total well numbers” value (1 µM, 2h) was 0/6. For the same compound, the “FPD (field-potential duration), % change from baseline” value (1 µM, 2h) was 3.6±1.6%, the “FPDc … % change from baseline” value (1 µM, 2h) was 2.5±1.7% and the “Flat T-wave-like, number of observations/total well numbers” value (1 µM, 2h) was 0/6. The “BR (beating rate), % change” value (1 µM, 24h) was -7±3%, the “Beating below threshold, number of observations/total well numbers” value (1 µM, 24h) was 0/6 and the “Cessation of beating, number of observations/total well numbers” value (1 µM, 24h) was 0/6. For the same compound, the “EAD, number of observations/total well numbers” value (1 µM, 24h) was 0/6, the “FPD (field-potential duration), % change from baseline” value (1 µM, 24h) was 8±1% and the “FPDc … % change from baseline” value (1 µM, 24h) was 5.5±1.6%. The “Flat T-wave-like, number of observations/total well numbers” value (1 µM, 24h) was 0/6, the “BR (beating rate), % change” value (1 µM, 48h) was -16±3 % and the “Beating below threshold, number of observations/total well numbers” value (1 µM, 48h) was 0/6. The “Cessation of beating, number of observations/total well numbers” value (1 µM, 48h) was 0/6, the “EAD, number of observations/total well numbers” value (1 µM, 48h) was 0/6 and the “FPD (field-potential duration), % change from baseline” value (1 µM, 48h) was 21.1±3.4 %. For the same compound, the “FPDc … % change from baseline” value (1 µM, 48h) was 14.3±2.3 %, the “Flat T-wave-like, number of observations/total well numbers” value (1 µM, 48h) was 0/6 and the “BR (beating rate), % change” value (1 µM, 72h) was -30±2 %. The “Beating below threshold, number of observations/total well numbers” value (1 µM, 72h) was 0/6, the “Cessation of beating, number of observations/total well numbers” value (1 µM, 72h) was 0/6 and the “EAD, number of observations/total well numbers” value (1 µM, 72h) was 0/6. The “FPD (field-potential duration), % change from baseline” value (1 µM, 72h) was 54.7±5.4 %, the “FPDc … % change from baseline” value (1 µM, 72h) was 37.5±4.3 % and the “Flat T-wave-like, number of observations/total well numbers” value (1 µM, 72h) was 0/6. For the same compound, the “BR (beating rate), % change” value (1 µM, 96h) was -30±5 %, the “Beating below threshold, number of observations/total well numbers” value (1 µM, 96h) was 0/6 and the “Cessation of beating, number of observations/total well numbers” value (1 µM, 96h) was 0/6. The “EAD, number of observations/total well numbers” value (1 µM, 96h) was 0/6, the “FPD (field-potential duration), % change from baseline” value (1 µM, 96h) was 71.5±10.4 % and the “FPDc … % change from baseline” value (1 µM, 96h) was 52.5±8.8 %. For the same compound, the “Flat T-wave-like, number of observations/total well numbers” value (1 µM, 96h) was 0/6, the “time point from which physiologically relevant prolongation of FPD and FPDc was observed” value (3 µM) was 24 h and the “BR (beating rate), % change” value (3 µM, 72h) was -54±5 %. For the same compound, the “Beating below threshold, number of observations/total well numbers” value (3 µM, 72h) was 0/6, the “Cessation of beating, number of observations/total well numbers” value (3 µM, 72h) was 3/6 and the “EAD, number of observations/total well numbers” value (3 µM, 72h) was 2/6. For the same compound, the “FPD (field-potential duration), % change from baseline” value (3 µM, 72h) was 224.5±68 %, the “FPDc … % change from baseline” value (3 µM, 72h) was 156.4±52.5 % and the “Flat T-wave-like, number of observations/total well numbers” value (3 µM, 72h) was 1/6. The “cessation of beating, wells/total wells” value (3 µM, 72h) was 3/6, the “Beating below threshold, number of observations/total well numbers” value (3 µM, 96h) was 1/6 and the “Cessation of beating, number of observations/total well numbers” value (3 µM, 96h) was 5/6. For the same compound, the “EAD, number of observations/total well numbers” value (3 µM, 96h) was 0/6, the “Flat T-wave-like, number of observations/total well numbers” value (3 µM, 96h) was 0/6 and the “cessation of beating, wells/total wells” value (3 µM, 96h) was 6/6. For the same compound, the “BR (beating rate), % change” value (3 µM, 2h) was -2±3%, the “Beating below threshold, number of observations/total well numbers” value (3 µM, 2h) was 0/6 and the “Cessation of beating, number of observations/total well numbers” value (3 µM, 2h) was 0/6. For the same compound, the “EAD, number of observations/total well numbers” value (3 µM, 2h) was 0/6, the “FPD (field-potential duration), % change from baseline” value (3 µM, 2h) was 3.6±1.9% and the “FPDc … % change from baseline” value (3 µM, 2h) was 2.7±2.1%. The “Flat T-wave-like, number of observations/total well numbers” value (3 µM, 2h) was 0/6, the “BR (beating rate), % change” value (3 µM, 24h) was -18±8 % and the “Beating below threshold, number of observations/total well numbers” value (3 µM, 24h) was 0/6. The “Cessation of beating, number of observations/total well numbers” value (3 µM, 24h) was 0/6, the “EAD, number of observations/total well numbers” value (3 µM, 24h) was 0/6 and the “FPD (field-potential duration), % change from baseline” value (3 µM, 24h) was 23.4±11.8 %. The “FPDc … % change from baseline” value (3 µM, 24h) was 15.2±8%, the “Flat T-wave-like, number of observations/total well numbers” value (3 µM, 24h) was 0/6 and the “BR (beating rate), % change” value (3 µM, 48h) was -30±8 %. For the same compound, the “Beating below threshold, number of observations/total well numbers” value (3 µM, 48h) was 0/6, the “Cessation of beating, number of observations/total well numbers” value (3 µM, 48h) was 0/6 and the “EAD, number of observations/total well numbers” value (3 µM, 48h) was 0/6. The “FPD (field-potential duration), % change from baseline” value (3 µM, 48h) was 73.1±39.4 %, the “FPDc … % change from baseline” value (3 µM, 48h) was 52.6±30.7 % and the “Flat T-wave-like, number of observations/total well numbers” value (3 µM, 48h) was 0/6. The “concentration from which prolongation of FPD and EAD-like events were induced” value (time- and dose-dependent) was 1000 nM.
